Measurements published in PubChem BioAssay (NCI).
Where “and” joins values, the source holds several entries; their conditions need not be identical. Equal entries are not always repeated.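 Test compounds were applied to cells in 96-well plates for 48 hours at 5 doses. GI50 is the concentration that inhibits growth by half. Definition used: TGI = concentration required for complete inhibition of growth.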 Starred links: 1 amine or outer side, 2 acyl side, 3 side chain; linkers in the order of their positions; H or OH if unused. Positions of bridges follow the written chain, without caps; N, C: chain ends. Non-standard residues stand in square brackets, D forms with d. Residues, ends and D or L forms follow the SMILES beside them. Chains are numbered I, II in the order given. Actinocin(9to1) = Cc1c2oc3c(C)ccc(C(=O)[*:1])c3nc-2c(C(=O)[*:2])c(N)c1=O; NMeY = CN[CH](Cc1ccc(O)cc1)C(=O)O; Sar = CNCC(=O)O

Key:
Assay in all cases: growth of human tumour cells (NCI), 48 h
MCF7 breast = tested on: MCF7 breast
EKVX NSCLC = tested on: EKVX NSCLC
KM12 colon = tested on: KM12 colon
COLO 205 colon = tested on: COLO 205 colon
SK-OV-3 ovarian = tested on: SK-OV-3 ovarian
U251 CNS = tested on: U251 CNS
SF-268 CNS = tested on: SF-268 CNS
BT-549 breast = tested on: BT-549 breast
NCI-H460 lung = tested on: NCI-H460 lung
IGROV1 ovarian = tested on: IGROV1 ovarian
SNB-75 CNS = tested on: SNB-75 CNS
OVCAR-8 ovarian = tested on: OVCAR-8 ovarian
TK-10 renal = tested on: TK-10 renal
OVCAR-3 ovarian = tested on: OVCAR-3 ovarian
NCI-H522 lung = tested on: NCI-H522 lung
NCI/ADR-RES ovarian = tested on: NCI/ADR-RES ovarian
MDA-MB-231 breast = tested on: MDA-MB-231 breast
SN12C renal = tested on: SN12C renal
HCC-2998 colon = tested on: HCC-2998 colon
HS 578T breast = tested on: HS 578T breast
MDA-MB-435 = tested on: MDA-MB-435
ACHN renal = tested on: ACHN renal
MOLT-4 leukemia = tested on: MOLT-4 leukemia
SF-539 CNS = tested on: SF-539 CNS
HL-60(TB) leukemia = tested on: HL-60(TB) leukemia
UO-31 renal = tested on: UO-31 renal
HOP-92 NSCLC = tested on: HOP-92 NSCLC
SNB-19 CNS = tested on: SNB-19 CNS
SK-MEL-5 melanoma = tested on: SK-MEL-5 melanoma
CAKI-1 renal = tested on: CAKI-1 renal
786-0 renal = tested on: 786-0 renal
A498 renal = tested on: A498 renal
RXF 393 renal = tested on: RXF 393 renal
NCI-H23 lung = tested on: NCI-H23 lung
SK-MEL-2 melanoma = tested on: SK-MEL-2 melanoma
LOX IMVI melanoma = tested on: LOX IMVI melanoma
CCRF-CEM leukemia = tested on: CCRF-CEM leukemia
UACC-257 melanoma = tested on: UACC-257 melanoma
K-562 leukemia = tested on: K-562 leukemia
M14 melanoma = tested on: M14 melanoma
DU-145 prostate = tested on: DU-145 prostate
OVCAR-4 ovarian = tested on: OVCAR-4 ovarian
SK-MEL-28 melanoma = tested on: SK-MEL-28 melanoma
T-47D breast = tested on: T-47D breast
OVCAR-5 ovarian = tested on: OVCAR-5 ovarian
MDA-N = tested on: MDA-N
SW-620 colon = tested on: SW-620 colon
SF-295 CNS = tested on: SF-295 CNS
MALME-3M melanoma = tested on: MALME-3M melanoma
NCI-H226 lung = tested on: NCI-H226 lung
HT29 colon = tested on: HT29 colon
PC-3 prostate = tested on: PC-3 prostate
HCT-116 colon = tested on: HCT-116 colon
SR leukemia = tested on: SR leukemia
UACC-62 melanoma = tested on: UACC-62 melanoma
HCT-15 colon = tested on: HCT-15 colon
A549 NSCLC = tested on: A549 NSCLC
RPMI-8226 leukemia = tested on: RPMI-8226 leukemia

In the case of `Cc1c2oc3c(C)ccc(C(=O)NC4C(=O)NC(C(C)C)C(=O)N5CCCC5C(=O)N(C)CC(=O)N(C)C(Cc5ccc(O)cc5)C(=O)OC4C)c3nc-2c(C(=O)NC2C(=O)NC(C(C)C)C(=O)N3CCCC3C(=O)N(C)CC(=O)N(C)C(Cc3ccc(O)cc3)C(=O)OC2C)c(N)c1=O` (stereo not given) (I: TVP[Sar][NMeY] / II: TVP[Sar][NMeY]; ester I:1-I:C, II:1-II:C; linker I:N-II:N via Actinocin(9to1); configuration not given here), the GI50 (MCF7 breast) is reported as 3.29 nM, the TGI (MCF7 breast) is reported as over 1000 nM and the GI50 (EKVX NSCLC) is reported as 231 nM and 102 nM. The TGI (EKVX NSCLC) was over 1000 nM, the TGI (KM12 colon) was 536 nM and > 1000 nM and the GI50 (COLO 205 colon) was 17.5 nM and 5.68 nM. For the same molecule, the TGI (COLO 205 colon) was 216 nM and 88.9 nM, the GI50 (SK-OV-3 ovarian) was 160 nM and 75 nM and the TGI (SK-OV-3 ovarian) was over 1000 nM. The TGI (U251 CNS) was over 1000 nM, the TGI (SF-268 CNS) was over 1000 nM and the TGI (BT-549 breast) was 213 nM and 73.3 nM. For the same molecule, the GI50 (NCI-H460 lung) was 5.6 nM and 0.964 nM, the TGI (NCI-H460 lung) was over 1000 nM and the TGI (IGROV1 ovarian) was over 1000 nM. For the same molecule, the GI50 (SNB-75 CNS) was 17.4 nM and 3.16 nM, the TGI (SNB-75 CNS) was 278 nM and 228 nM and the TGI (OVCAR-8 ovarian) was 612 nM. For the same molecule, the GI50 (TK-10 renal) was 117 nM, the TGI (TK-10 renal) was over 1000 nM and the GI50 (OVCAR-3 ovarian) was 17.6 nM and 6.46 nM. The TGI (NCI-H522 lung) was 110 nM and 31 nM, the GI50 (NCI/ADR-RES ovarian) was 494 nM and the TGI (NCI/ADR-RES ovarian) was over 1000 nM. The GI50 (MDA-MB-231 breast) was 136 nM and 31.8 nM, the TGI (MDA-MB-231 breast) was over 1000 nM and the TGI (SN12C renal) was over 1000 nM. The GI50 (HCC-2998 colon) was 104 nM and 11.2 nM, the TGI (HCC-2998 colon) was 277 nM and 169 nM and the TGI (HS 578T breast) was 52.1 nM and 62.4 nM. The GI50 (MDA-MB-435) was 45.9 nM and 9.9 nM, the TGI (MDA-MB-435) was 259 nM and 147 nM and the TGI (ACHN renal) was over 1000 nM. The GI50 (MOLT-4 leukemia) was 4.26 nM and 1.76 nM, the TGI (SF-539 CNS) was 224 nM and 152 nM and the TGI (HL-60(TB) leukemia) was 94.7 nM. The GI50 (UO-31 renal) was > 726 nM and 87.4 nM, the TGI (UO-31 renal) was > 1000 nM and 459 nM and the TGI (HOP-92 NSCLC) was over 1000 nM. The GI50 (SNB-19 CNS) was 7.97 nM and 3.32 nM, the TGI (SNB-19 CNS) was over 1000 nM and the GI50 (SK-MEL-5 melanoma) was 22.7 nM and 6.12 nM. The TGI (SK-MEL-5 melanoma) was 221 nM and 25.2 nM, the TGI (CAKI-1 renal) was over 1000 nM and the TGI (786-0 renal) was over 1000 nM. For the same molecule, the TGI (A498 renal) was 664 nM and 110 nM, the GI50 (RXF 393 renal) was 63.5 nM and 22.9 nM and the TGI (RXF 393 renal) was 307 nM and 87.1 nM. The GI50 (NCI-H23 lung) was 49.3 nM and 12.8 nM, the TGI (NCI-H23 lung) was 287 nM and 77.2 nM and the TGI (SK-MEL-2 melanoma) was 111 nM and 24.5 nM. The GI50 (LOX IMVI melanoma) was 4.36 nM and 0.966 nM, the TGI (LOX IMVI melanoma) was over 1000 nM and the GI50 (CCRF-CEM leukemia) was 2.56 nM and 0.73 nM. The GI50 (UACC-257 melanoma) was 93.6 nM and 11.1 nM, the TGI (UACC-257 melanoma) was 540 nM and 446 nM and the GI50 (K-562 leukemia) was 3.38 nM and 0.595 nM. For the same molecule, the TGI (K-562 leukemia) was over 1000 nM, the GI50 (M14 melanoma) was 175 nM and 51.3 nM and the TGI (M14 melanoma) was > 793 nM and 229 nM. For the same molecule, the GI50 (DU-145 prostate) was 68.7 nM and 30.2 nM, the TGI (DU-145 prostate) was over 1000 nM and the TGI (OVCAR-4 ovarian) was over 301 nM. For the same molecule, the GI50 (SK-MEL-28 melanoma) was 24.8 nM and 7.01 nM, the TGI (SK-MEL-28 melanoma) was 205 nM and 74.8 nM and the GI50 (T-47D breast) was 10.3 nM and 4.57 nM. For the same molecule, the TGI (T-47D breast) was over 334 nM, the GI50 (OVCAR-5 ovarian) was 199 nM and 50.8 nM and the TGI (OVCAR-5 ovarian) was 997 nM and > 443 nM. The GI50 (MDA-N) was 27.3 nM and 5.11 nM, the TGI (MDA-N) was > 480 nM and 259 nM and the TGI (SW-620 colon) was over 1000 nM. For the same molecule, the GI50 (SF-295 CNS) was 43.8 nM and 15.7 nM, the TGI (SF-295 CNS) was over 1000 nM and the TGI (MALME-3M melanoma) was 273 nM and 156 nM. For the same molecule, the TGI (NCI-H226 lung) was over 539 nM, the GI50 (HT29 colon) was 8.59 nM and 2.67 nM and the TGI (HT29 colon) was 377 nM and > 412 nM. For the same molecule, the GI50 (PC-3 prostate) was 40.7 nM and 11.5 nM, the TGI (PC-3 prostate) was over 1000 nM and the GI50 (HCT-116 colon) was 5.53 nM and 1.36 nM. The TGI (HCT-116 colon) was over 1000 nM, the TGI (SR leukemia) was over 514 nM and the GI50 (UACC-62 melanoma) was 23.5 nM and 5.7 nM. The TGI (UACC-62 melanoma) was 157 nM and 21.3 nM, the GI50 (HCT-15 colon) was 988 nM and 116 nM and the TGI (HCT-15 colon) was over 1000 nM. The GI50 (A549 NSCLC) was 49.9 nM and 11.9 nM, the TGI (A549 NSCLC) was over 1000 nM and the TGI (RPMI-8226 leukemia) was 926 nM and > 1000 nM.
